According to US10329324B2 (viDA Therapeutics Inc., priority 2013, dated 2019):
Read-outs that look alike come from different tables or passages of the source.

How the values were obtained:
[1] = Kinetic solubility determination in PBS; format: physicochemical; details: PBS 1X pH 7.4, 2.0% DMSO, 24 hour incubation at ambient temperature; for solubility at 24 h: phosphate buffered saline (PBS 1×), 21 °C, pH 7.4, aqueous buffer, kinetic from dmso stock
Experimental: Kinetic solubility buffer (phosphate buffered saline (PBS, 1×) at pH 7.4) was prepared from PBS (10×) solution, (Fisher Scientific, Pittsburgh, Pa., USA, 10×), by adding PBS (50 mL, 10×) to approximately water (450 mL HPLC grade). The volume of the solution was then adjusted to 500 mL for a total dilution factor of 1:10 and a final PBS concentration of 1×. The pH of the final solution (PBS (1×)) was measured and found to be 7.4.
A DMSO stock solution (typically 10 mM or greater) was used for each compound to be tested. A final DMSO concentration of 2.0% and maximum theoretical compound concentration of typically 200 μM (or greater) was achieved by diluting an aliquot (6 μl) of each stock with kinetic solubility buffer (294 μl, PBS (1×) at pH 7.4) using a liquid handling system (Hamilton STARlet, Hamilton Robotics, Inc., Reno, Nev., USA) and incubated directly in a solubility filter plate (Millipore, Billerica, Mass., USA). Following 24 hour incubation at ambient temperature (20.5-21.7° C.), each sample was vacuum filtered. The filtrate was injected into the chemiluminescent nitrogen detector for quantification (Automated Discovery Workstation, Analiza, Inc., Cleveland, Ohio, USA). Each result was reported both in μM and μg/mL units. Three separate on-board performance indicating standards were assayed in triplicate with each test compound to ensure test results were within the acceptable range.
The equimolar nitrogen response of the detector was calibrated using standards which spanned the dynamic range of the instrument from 0.08 to 4500 μg/ml nitrogen. Each filtrate was quantified with respect to this calibration curve. Each calculated solubility value was corrected for background nitrogen present in the DMSO, and buffer used to prepare each sample. All reported values for samples containing adjacent nitrogen atoms in a ring structure were corrected for the expected non-equimolar response. Each calculated solubility result assumed that each sample was free of nitrogen containing impurities and was stable under the assay conditions. Analyses were performed at Analiza Inc. (Cleveland, Ohio, USA) by published methods (Bhattachar, S. N., et al, J. Pharma. BioMed Anal. 41:152-7 2006).

[2] = molecular target: T1, human Granzyme B (hGzmB) (Homo sapiens, UniProt P10144); experiment: Human Granzyme B enzymatic inhibition assay (fluorogenic, kinetic); format: biochemical; details: activity codes, Table 7; read-out: IC50 Activity Range
T1 construct: purchased Froelich Lab, Northshore University Health Systems Research Institute, Evanston, Ill., USA
In short: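 Human Granzyme B preincubated with compound for 30 min total (5 min shaking, 20 min bench, then reaction temperature). Fluorogenic substrate added and read kinetically, 25 cycles at 1-min intervals. Percent inhibition at one or two concentrations or 8–12-point 3-fold dose response from 20 uM, replicates, with IC50 by non-linear regression.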

[3] = read-out: Solubility in aqueous PBS Buffer (1X, pH 7.4)
[4] = read-out: Solubility in aqueous PBS Buffer (1X, pH 7.4), ug/mL

T1 sequence (P10144 21-247): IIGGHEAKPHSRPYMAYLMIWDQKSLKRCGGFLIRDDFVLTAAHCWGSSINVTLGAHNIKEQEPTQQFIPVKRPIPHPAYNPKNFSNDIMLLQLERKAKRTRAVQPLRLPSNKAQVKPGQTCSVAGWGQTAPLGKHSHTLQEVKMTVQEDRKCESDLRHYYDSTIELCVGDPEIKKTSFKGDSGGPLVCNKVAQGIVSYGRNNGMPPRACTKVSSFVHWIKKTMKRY

| SMILES | solubility at 24 h [1, 3] | solubility at 24 h [1, 4] | IC50 [2] | Solubility in aqueous PBS Buffer (1X, pH 7.4), uM [1] | Solubility in aqueous PBS Buffer (1X, pH 7.4), ug/mL [1] |
| --- | --- | --- | --- | --- | --- |
| CC[C@H](C)[C@H](NC(=O)CC(C)CC(=O)O)C(=O)NCC(=O)N1c2ccccc2C[C@H]1C(=O)NCc1nn[nH]n1 (single isomer, unassigned) [Example A17-1] | > 750 µM | > 407 µg/mL | 100 to 1000 nM | – | – |
| CC[C@H](C)[C@H](NC(=O)CC(C)CC(=O)O)C(=O)NCC(=O)N1c2ccccc2C[C@H]1C(=O)NCc1nn[nH]n1 (single isomer, unassigned) [Example A17-2] | – | – | 100 to 1000 nM | >750 uM | >407 ug/mL |
| CC[C@H](C)[C@H](NC(=O)C1CCCCC1C(=O)O)C(=O)NCC(=O)N1c2ccccc2C[C@H]1C(=O)NCc1nn[nH]n1 (single isomer, unassigned) [Example A20-1] | 535 µM | 358 µg/mL | < 100 nM | – | – |
| CC[C@H](C)[C@H](NC(=O)C1CCCCC1C(=O)O)C(=O)NCC(=O)N1c2ccccc2C[C@H]1C(=O)NCc1nn[nH]n1 (single isomer, unassigned) [Example A20-2] | – | – | < 100 nM | 641 uM | 429 ug/mL |
| CC[C@H](C)[C@H](NC(=O)C1CC=CCC1C(=O)O)C(=O)NCC(=O)N1c2ccccc2C[C@H]1C(=O)NCc1nn[nH]n1 (single isomer, unassigned) [Example A21-1] | > 750 µM | > 425 µg/mL | < 100 nM | – | – |
| CC[C@H](C)[C@H](NC(=O)C1CC=CCC1C(=O)O)C(=O)NCC(=O)N1c2ccccc2C[C@H]1C(=O)NCc1nn[nH]n1 (single isomer, unassigned) [Example A21-2] | – | – | < 100 nM | >750 uM | >425 ug/mL |
| CC[C@H](C)[C@H](NC(=O)C1CCCC1C(=O)O)C(=O)NCC(=O)N1c2ccccc2C[C@H]1C(=O)NCc1nn[nH]n1 (single isomer, unassigned) [Example A22-1] | > 750 µM | > 416 µg/mL | < 100 nM | – | – |
| CC[C@H](C)[C@H](NC(=O)C1CCCC1C(=O)O)C(=O)NCC(=O)N1c2ccccc2C[C@H]1C(=O)NCc1nn[nH]n1 (single isomer, unassigned) [Example A22-2] | – | – | < 100 nM | >750 uM | >416 ug/mL |
| CC[C@H](C)[C@H](NC(=O)C1CCCCC1C(=O)O)C(=O)NCC(=O)N1c2ccccc2C[C@H]1C(=O)NCc1nn[nH]n1 (single isomer, unassigned) [Example A23-1] | – | – | < 100 nM | >750 uM | >426 ug/mL |
| CC[C@H](C)[C@H](NC(=O)C1CCCCC1C(=O)O)C(=O)NCC(=O)N1c2ccccc2C[C@H]1C(=O)NCc1nn[nH]n1 (single isomer, unassigned) [Example A23-2] | – | – | < 100 nM | 679 uM | 386 ug/mL |
| CC[C@H](C)[C@H](NC(=O)C1CC1C(=O)O)C(=O)NCC(=O)N1c2ccccc2C[C@H]1C(=O)NCc1nn[nH]n1 (single isomer, unassigned) [Example A26-1] | > 750 µM | > 395 µg/mL | < 100 nM | – | – |
| CC[C@H](C)[C@H](NC(=O)C1CC1C(=O)O)C(=O)NCC(=O)N1c2ccccc2C[C@H]1C(=O)NCc1nn[nH]n1 (single isomer, unassigned) [Example A26-2] | – | – | < 100 nM | 685 uM | 361 ug/mL |
| CC[C@H](C)[C@H](NC(=O)C(C)CC(=O)O)C(=O)NCC(=O)N1c2ccccc2C[C@H]1C(=O)NCc1nn[nH]n1 (single isomer, unassigned) [Example A30-1] | > 750 µM | > 396 µg/mL | < 100 nM | – | – |
| CC[C@H](C)[C@H](NC(=O)C(C)CC(=O)O)C(=O)NCC(=O)N1c2ccccc2C[C@H]1C(=O)NCc1nn[nH]n1 (single isomer, unassigned) [Example A30-2] | – | – | < 100 nM | >750 uM | >396 ug/mL |
| CC[C@H](C)[C@H](NC(=O)C(CCC(=O)O)c1ccccc1)C(=O)NCC(=O)N1c2ccccc2C[C@H]1C(=O)NCc1nn[nH]n1 (single isomer, unassigned) [Example A54-1] | 451 µM | 273 µg/mL | < 100 nM | – | – |
| CC[C@H](C)[C@H](NC(=O)C(CCC(=O)O)c1ccccc1)C(=O)NCC(=O)N1c2ccccc2C[C@H]1C(=O)NCc1nn[nH]n1 (single isomer, unassigned) [Example A54-2] | – | – | < 100 nM | >750 uM | >454 ug/mL |

The remaining lines, values ahead:

| solubility at 24 h [1, 3] | solubility at 24 h [1, 4] | IC50 [2] | Solubility in aqueous PBS Buffer (1X, pH 7.4), uM [1] | Solubility in aqueous PBS Buffer (1X, pH 7.4), ug/mL [1] | SMILES |
| --- | --- | --- | --- | --- | --- |
| 144 µM | 77 µg/mL | 100 to 1000 nM | – | – | CC[C@H](C)[C@H](NC(=O)Cc1ccccc1)C(=O)NCC(=O)N1c2ccccc2C[C@H]1C(=O)NCc1nn[nH]n1 [Example A1, (2S)-1-{2-[(2S,3S)-3-Methyl-2-(2-Phenylacetamido)Pentanamido]Acetyl}-N-(2H-1,2,3,4-Tetrazol-5-Ylmethyl)-2,3-Dihydro-1H-Indole-2-Carboxamide] |
| > 150 µM | > 80 µg/mL | 100 to 1000 nM | – | – | CC[C@H](C)[C@H](NC(=O)Cc1ccncc1)C(=O)NCC(=O)N1c2ccccc2C[C@H]1C(=O)NCc1nn[nH]n1 [Example A2, (2S)-1-{2-[(2S,3S)-3-Methyl-2-[2-(Pyridin-4-Yl)Acetamido]Pentanamido]Acetyl}-N-(2H-1,2,3,4-Tetrazol-5-Ylmethyl)-2,3-Dihydro-1H-Indole-2-Carboxamide] |
| 139 µM | 74 µg/mL | 100 to 1000 nM | – | – | CC[C@H](C)[C@H](NC(=O)Cc1cccnc1)C(=O)NCC(=O)N1c2ccccc2C[C@H]1C(=O)NCc1nn[nH]n1 [Example A3, (2S)-1-{2-[(2S,3S)-3-Methyl-2-[2-(Pyridin-3-Yl)Acetamido]Pentanamido]Acetyl}-N-(2H-1,2,3,4-Tetrazol-5-Ylmethyl)-2,3-Dihydro-1H-Indole-2-Carboxamide] |
| > 150 µM | > 80 µg/mL | 100 to 1000 nM | – | – | CC[C@H](C)[C@H](NC(=O)Cc1ccccn1)C(=O)NCC(=O)N1c2ccccc2C[C@H]1C(=O)NCc1nn[nH]n1 [Example A4, (2S)-1-{2-[(2S,3S)-3-Methyl-2-[2-(Pyridin-2-Yl)Acetamido]Pentanamido]Acetyl}-N-(2H-1,2,3,4-Tetrazol-5-Ylmethyl)-2,3-Dihydro-1H-Indole-2-Carboxamide] |
| > 150 µM | > 78 µg/mL | 1000 to 10000 nM | – | – | CC[C@H](C)[C@H](NC(=O)CCN)C(=O)NCC(=O)N1c2ccccc2C[C@H]1C(=O)NCc1nn[nH]n1 [Example A6, (2S)-1-{2-[(2S,3S)-2-(3-Aminopropanamido)-3-Methylpentanamido]Acetyl}-N-(2H-1,2,3,4-Tetrazol-5-Ylmethyl)-2,3-Dihydro-1H-Indole-2-Carboxamide] |
| – | – | 1000 to 10000 nM | – | – | CC[C@H](C)[C@H](NC(=O)OC(C)(C)C)C(=O)NCC(=O)N1c2ccccc2C[C@H]1C(=O)NCc1nn[nH]n1 [Example I-5, tert-Butyl N-[(1S,2S)-2-methyl-1-({2-oxo-2-[(2S)-2-[(2H-1,2,3,4-tetrazol-5-ylmethyl)carbamoyl]-2,3-dihydro-1H-indol-1-yl]ethyl}carbamoyl)butyl]carbamate] |
